Source: ChEMBL document CHEMBL5055643, “Sophoraflavanone G Resensitizes ABCG2-Overexpressing Multidrug-Resistant Non-Small-Cell Lung Cancer Cells to Chemotherapeutic Drugs” (J Nat Prod, 2021)

Experiments:
NCI-H460 [1] = assay: Cytotoxicity against human NCI-H460 cells assessed as reduction in cell viability measured after 72 hrs by CCK8 assay; format: cell-based; details: NCI-H460, 72 h
NCI-H460 [2] = assay: Cytotoxicity against mitoxantrone-selected ABCG2-overexpressing human NCI-H460/MX20 cells assessed as reduction in cell viability measured after 72 hrs by CCK8 assay; format: ADME, cell-based; details: NCI-H460, 72 h
A549 [3] = assay: Cytotoxicity against human A549 cells assessed as reduction in cell viability measured after 72 hrs by CCK8 assay; format: cell-based; details: A549, 72 h
ABCG2 = assay: Resistance factor, ratio of IC50 for mitoxantrone-selected ABCG2-overexpressing human NCI-H460/MX20 cells to IC50 for human NCI-H460 cells; format: ADME; details: read-out: Ratio IC50
NCI-H460 [4] = assay: Chemo-sensitizing activity against human NCI-H460 cells assessed as reversal fold at 1 uM measured after 72 hrs in presence of topotecan by CCK8 assay relative to control; format: functional
NCI-H460 [5] = assay: Chemo-sensitizing activity against mitoxantrone-selected ABCG2-overexpressing human NCI-H460/MX20 cells assessed as reversal fold at 5 uM measured after 72 hrs in presence of topotecan by CCK8 assay relative to control; format: functional
NCI-H460 [6] = assay: Chemo-sensitizing activity against human NCI-H460 cells assessed as reversal fold at 5 uM measured after 72 hrs in presence of SN-38 by CCK8 assay relative to control; format: functional
NCI-H460 [7] = assay: Chemo-sensitizing activity against mitoxantrone-selected ABCG2-overexpressing human NCI-H460/MX20 cells assessed as reversal fold at 1 uM measured after 72 hrs in presence of SN-38 by CCK8 assay relative to control; format: functional
NCI-H460 [8] = assay: Chemo-sensitizing activity against mitoxantrone-selected ABCG2-overexpressing human NCI-H460/MX20 cells assessed as reversal fold at 2 uM measured after 72 hrs in presence of SN-38 by CCK8 assay relative to control; format: functional
NCI-H460 [9] = assay: Chemo-sensitizing activity against mitoxantrone-selected ABCG2-overexpressing human NCI-H460/MX20 cells assessed as reversal fold at 5 uM measured after 72 hrs in presence of SN-38 by CCK8 assay relative to control; format: functional
NCI/ADR-RES [10] = assay: Chemo-sensitizing activity against ABCB1-overexpressing human NCI/ADR-RES cells assessed as reversal fold at 2 uM measured after 72 hrs in presence of paclitaxel by CCK8 assay relative to control; format: functional
A549 [11] = assay: Chemo-sensitizing activity against becatecarin-selected ABCG2-overexpressing human A549/Bec150 cells assessed as reversal fold at 1 uM measured after 72 hrs in presence of mitoxantrone by CCK8 assay relative to control; format: functional
A549 [12] = assay: Chemo-sensitizing activity against human A549 cells assessed as reversal fold at 1 uM measured after 72 hrs in presence of topotecan by CCK8 assay relative to control; format: functional
A549 [13] = assay: Chemo-sensitizing activity against human A549 cells assessed as reversal fold at 5 uM measured after 72 hrs in presence of topotecan by CCK8 assay relative to control; format: functional
A549 [14] = assay: Chemo-sensitizing activity against becatecarin-selected ABCG2-overexpressing human A549/Bec150 cells assessed as reversal fold at 2 uM measured after 72 hrs in presence of topotecan by CCK8 assay relative to control; format: functional
HEK293 [15] = assay: Chemo-sensitizing activity against human HEK293 cells assessed as reversal fold at 2 uM measured after 72 hrs in presence of mitoxatrone by CCK8 assay relative to control; format: functional
HEK293 [16] = assay: Chemo-sensitizing activity against human HEK293 cells assessed as reversal fold at 2 uM measured after 72 hrs in presence of topotecan by CCK8 assay relative to control; format: functional
HEK293 [17] = assay: Chemo-sensitizing activity against ABCG2-overexpressing human HEK293 cells assessed as reversal fold at 2 uM measured after 72 hrs in presence of topotecan by CCK8 assay relative to control; format: functional
HEK293 [18] = assay: Chemo-sensitizing activity against ABCG2-overexpressing human HEK293 cells assessed as reversal fold at 5 uM measured after 72 hrs in presence of topotecan by CCK8 assay relative to control; format: functional
HEK293 [19] = assay: Chemo-sensitizing activity against human HEK293 cells assessed as reversal fold at 5 uM measured after 72 hrs in presence of SN-38 by CCK8 assay relative to control; format: functional
HEK293 [20] = assay: Chemo-sensitizing activity against ABCG2-overexpressing human HEK293/482R cells assessed as reversal fold at 1 uM measured after 72 hrs in presence of SN-38 by CCK8 assay relative to control; format: functional
HEK293 [21] = assay: Chemo-sensitizing activity against ABCG2-overexpressing human HEK293/482R cells assessed as reversal fold at 5 uM measured after 72 hrs in presence of SN-38 by CCK8 assay relative to control; format: functional
OVCAR-8 [22] = assay: Chemo-sensitizing activity against human OVCAR-8 cells assessed as reversal fold at 2 uM measured after 72 hrs in presence of vincristine by CCK8 assay relative to control; format: functional
OVCAR-8 [23] = assay: Chemo-sensitizing activity against human OVCAR-8 cells assessed as reversal fold at 5 uM measured after 72 hrs in presence of vincristine by CCK8 assay relative to control; format: functional
NCI/ADR-RES [24] = assay: Chemo-sensitizing activity against ABCB1-overexpressing human NCI/ADR-RES cells assessed as reversal fold at 5 uM measured after 72 hrs in presence of vincristine by CCK8 assay relative to control; format: functional
NCI/ADR-RES [25] = assay: Chemo-sensitizing activity against ABCB1-overexpressing human NCI/ADR-RES cells assessed as reversal fold at 1 uM measured after 72 hrs in presence of colchicine by CCK8 assay relative to control; format: functional
KB 3-1 = assay: Chemo-sensitizing activity against human KB 3-1 cells assessed as reversal fold at 1 uM measured after 72 hrs in presence of paclitaxel by CCK8 assay relative to control; format: functional
KB-V1 [26] = assay: Chemo-sensitizing activity against ABCB1-overexpressing human KB-V1 cells assessed as reversal fold at 1 uM measured after 72 hrs in presence of paclitaxel by CCK8 assay relative to control; format: functional
KB-V1 [27] = assay: Chemo-sensitizing activity against ABCB1-oveexpressing human KB-V1 cells assessed as reversal fold at 2 uM measured after 72 hrs in presence of colchicine by CCK8 assay relative to control; format: functional
HEK293 [28] = assay: Chemo-sensitizing activity against human HEK293 cells assessed as reversal fold at 2 uM measured after 72 hrs in presence of paclitaxel by CCK8 assay relative to control; format: functional
HEK293 [29] = assay: Chemo-sensitizing activity against human HEK293 cells assessed as reversal fold at 5 uM measured after 72 hrs in presence of paclitaxel by CCK8 assay relative to control; format: functional
HEK293 [30] = assay: Chemo-sensitizing activity against human HEK293 cells assessed as reversal fold at 5 uM measured after 72 hrs in presence of colchicine by CCK8 assay relative to control; format: functional
[31] = Cytotoxicity against human NCI-H460 cells assessed as cell viability at 1 to 5 uM measured after 72 hrs by CCK8 assay; format: cell-based; details: dose 1-5 µM, read-out: Activity
[32] = Cytotoxicity against human A549 cells assessed as cell viability at 1 to 5 uM measured after 72 hrs by CCK8 assay; format: cell-based; details: dose 1-5 µM, read-out: Activity

Q: With `C=C(C)[C@H](CC=C(C)C)Cc1c(O)cc(O)c2c1O[C@H](c1ccc(O)cc1O)CC2=O` [SOPHORAFLAVANONE G] as the molecule, how does the IC50 (NCI-H460 [1]) read?
A: The IC50 was 29.3 µM.

Q: What about the IC50 (NCI-H460 [2]) of the same molecule?
A: The IC50 was 22.1 µM.

Q: And the IC50 (A549 [3])?
A: The IC50 was 26.2 µM.

Q: And the selectivity ratio (ABCG2)?
A: The selectivity ratio was 0.8.

Q: And the “fold change (FC)” value (NCI-H460 [4])?
A: The value was 1.6.

Q: What about the “fold change (FC)” value (NCI-H460 [5]) of the same molecule?
A: Its value is 7.8.

Q: And the “fold change (FC)” value (NCI-H460 [6])?
A: The value was 2.8.

Q: What about the “fold change (FC)” value (NCI-H460 [7]) of the same molecule?
A: Its value is 2.6.

Q: What about the “fold change (FC)” value (NCI-H460 [8]) of the same molecule?
A: Its value is 3.7.

Q: And the “fold change (FC)” value (NCI-H460 [9])?
A: Its value is 10.1.

Q: What about the “fold change (FC)” value (NCI/ADR-RES [10]) of the same molecule?
A: The value was 1.1.

Q: And the “fold change (FC)” value (A549 [11])?
A: The value was 2.7.

Q: What about the “fold change (FC)” value (A549 [12]) of the same molecule?
A: Its value is 1.1.

Q: And the “fold change (FC)” value (A549 [13])?
A: The value was 1.4.

Q: What about the “fold change (FC)” value (A549 [14]) of the same molecule?
A: Its value is 1.8.

Q: And the “fold change (FC)” value (HEK293 [15])?
A: The value was 0.9.

Q: What about the “fold change (FC)” value (HEK293 [16]) of the same molecule?
A: Its value is 0.9.

Q: And the “fold change (FC)” value (HEK293 [17])?
A: The value was 2.3.

Q: What about the “fold change (FC)” value (HEK293 [18]) of the same molecule?
A: Its value is 5.

Q: And the “fold change (FC)” value (HEK293 [19])?
A: Its value is 1.

Q: And the “fold change (FC)” value (HEK293 [20])?
A: Its value is 2.1.

Q: What about the “fold change (FC)” value (HEK293 [21]) of the same molecule?
A: Its value is 6.4.

Q: What about the “fold change (FC)” value (OVCAR-8 [22]) of the same molecule?
A: Its value is 1.

Q: And the “fold change (FC)” value (OVCAR-8 [23])?
A: The value was 1.7.

Q: What about the “fold change (FC)” value (NCI/ADR-RES [24]) of the same molecule?
A: The value was 1.1.

Q: What about the “fold change (FC)” value (NCI/ADR-RES [25]) of the same molecule?
A: Its value is 0.9.

Q: What about the “fold change (FC)” value (KB 3-1) of the same molecule?
A: The value was 0.9.

Q: And the “fold change (FC)” value (KB-V1 [26])?
A: Its value is 0.9.

Q: What about the “fold change (FC)” value (KB-V1 [27]) of the same molecule?
A: Its value is 0.9.

Q: And the “fold change (FC)” value (HEK293 [28])?
A: The value was 1.

Q: What about the “fold change (FC)” value (HEK293 [29]) of the same molecule?
A: The value was 1.2.

Q: What about the “fold change (FC)” value (HEK293 [30]) of the same molecule?
A: The value was 1.

Q: What about the viability at 72 h, 5 µM [31] of the same molecule?
A: The viability at 72 h, 5 µM was over 90%.

Q: What about the viability at 72 h, up to 5 µM [32] of the same molecule?
A: Its viability at 72 h, up to 5 µM is over 90%.
